# Experimental data as given in patent US20230140276A1, “TRICYCLIC COMPOUNDS, PREPARATION METHOD AND MEDICAL USE THEREOF” (HEFEI INSTITUTE OF PHARMACEUTICAL INDUSTRY CO., LTD., priority 2020, published 2023).
# Tests used:
# [1] = tested on: histamine-induced skin vascular permeability; assay: Inhibitory effect on histamine-induced vascular permeability in mice; format: in vivo, ICR mice; conditions: Mus musculus, po; 5 mg/kg intragastric 1 hour before modeling; histamine phosphate 1 ug/0.1 mL; Evans Blue absorbance at 610 nm; read-out: Inhibition rate (%)
# Experimental: Intragastric administration was performed 1 hour before modeling. The model group was given the corresponding solvent. […] 10% sodium sulfide was used to depilate the back of mice (3 cm×3 cm). The mice were injected 1 ug/0.1 mL of histamine phosphate physiological saline solution into the depilation site one hour after the administration, and injected 0.25% Evans Blue solution 4 ml/kg from the tail vein immediately after the injection. After 30 minutes, the mice were dislocated and sacrificed. The blue-stained part of the skin was removed and perforated (diameter 15 mm), cut into pieces and soaked in 1 ml of acetone-saline (7:3) solution. After 24 h, it was centrifuged (3000 r/min, 10 min) to take the supernatant. The absorbance of the sample was measured with an ultraviolet spectrophotometer at a wavelength of 610 nm and a blank zero calibration with acetone-physiological saline solution.
# hERG potassium channel = hERG potassium channel (Homo sapiens, UniProt Q12809); assay: hERG potassium channel activity test; format: biochemical
# [2] = tested on: pilocarpine-induced saliva secretion; assay: Pilocarpine-induced salivation in rats; conditions: 10 mg/kg intragastric; pilocarpine 1 mg/kg i.p. 15 minutes later; saliva collected 10 minutes
# Experimental: Rats in each group were given corresponding drugs by intragastric administration. 15 minutes later, pilocarpine (1 mg/kg, dissolved in physiological saline) was injected intraperitoneally to induce saliva secretion. The rat was immediately anesthetized by intraperitoneal injection of 10% chloral hydrate. After the rat was anesthetized, the residual saliva in the oral cavity was taken out with a cotton ball in that the weighed cotton ball (M1) was placed in the oral cavity (two under the tongue and one for each on both sides). The cotton ball was taken out 10 minutes later and the weight of the cotton ball (M2) was immediately measured.
# Inhibition rate=Saliva secretion in drug administration group/Saliva secretion in model group×100%
# hERG potassium channel, sequence (Q12809 whole entry): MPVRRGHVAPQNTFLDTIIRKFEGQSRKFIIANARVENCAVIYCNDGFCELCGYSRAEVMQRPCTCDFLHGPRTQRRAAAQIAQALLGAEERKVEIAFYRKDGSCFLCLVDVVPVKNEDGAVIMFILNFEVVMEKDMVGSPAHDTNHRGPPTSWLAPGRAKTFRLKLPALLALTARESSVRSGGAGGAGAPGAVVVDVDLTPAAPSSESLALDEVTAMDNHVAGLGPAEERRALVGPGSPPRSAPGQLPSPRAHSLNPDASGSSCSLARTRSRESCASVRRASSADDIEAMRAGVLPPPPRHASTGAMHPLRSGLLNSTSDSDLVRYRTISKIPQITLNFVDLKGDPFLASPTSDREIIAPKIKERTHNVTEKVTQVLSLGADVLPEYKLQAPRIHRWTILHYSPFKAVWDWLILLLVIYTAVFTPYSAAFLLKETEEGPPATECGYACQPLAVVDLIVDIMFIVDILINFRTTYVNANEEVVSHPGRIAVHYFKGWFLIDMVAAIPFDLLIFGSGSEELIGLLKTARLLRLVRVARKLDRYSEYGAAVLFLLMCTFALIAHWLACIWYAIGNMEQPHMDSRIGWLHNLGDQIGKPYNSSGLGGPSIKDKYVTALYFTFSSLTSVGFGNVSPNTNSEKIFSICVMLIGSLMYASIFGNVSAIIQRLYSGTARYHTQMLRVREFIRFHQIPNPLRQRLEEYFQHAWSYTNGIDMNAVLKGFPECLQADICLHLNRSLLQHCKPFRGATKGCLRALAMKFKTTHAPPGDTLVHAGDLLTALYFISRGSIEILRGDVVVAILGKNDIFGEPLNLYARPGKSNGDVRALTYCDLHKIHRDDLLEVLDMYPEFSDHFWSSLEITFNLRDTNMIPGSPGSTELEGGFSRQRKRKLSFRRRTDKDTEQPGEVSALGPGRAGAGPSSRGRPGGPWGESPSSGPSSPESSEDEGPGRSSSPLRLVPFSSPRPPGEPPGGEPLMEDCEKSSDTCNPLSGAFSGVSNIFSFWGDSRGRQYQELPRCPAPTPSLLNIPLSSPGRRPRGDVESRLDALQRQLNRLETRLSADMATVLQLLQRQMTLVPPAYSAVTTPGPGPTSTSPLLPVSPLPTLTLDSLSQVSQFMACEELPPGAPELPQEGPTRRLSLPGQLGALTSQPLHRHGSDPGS
Inhibition rate (%) [2],SMILES,inhibition in vivo at 5 mg/kg [1],IC50 (hERG potassium channel)
8.72%,"CC(C)(C(=O)O)c1ccc(CCCN2CCC(=C3c4ccc(Cl)cc4CCc4cccnc43)CC2)c(C#N)c1 [Example 4, 2-(4-(3-(4-(8-chloro-5,6-dihydro-11H-benzo[5,6]cyclohepta[1,2-b]pyridine-11-ylidene)piperidine-1-yl)propyl)-3-cyano)-2-methylpropionic acid]",65.4%,> 30 µM
4.65%,"CC(C)(C(=O)O)c1ccc(CCCN2CCC(=C3c4ccc(Cl)cc4CCc4cccnc43)CC2)c(OC(F)(F)F)c1 [Example 7, 2-(4-(3-(4-(8-chloro-5,6-dihydro-11H-benzo[5,6]cyclohepta[1,2-b]pyridine-11-enyl)piperidine-1-yl)propyl)-3-(trifluoromethoxy)phenyl)-2-methylpropionic acid]",42.6%,> 30 µM
8.23%,"CC(C)(C(=O)O)c1ccc(CCCN2CCC(=C3c4ccc(Cl)cc4CCc4cccnc43)CC2)c(F)c1 [Example 8, 2-(4-(3-(4-(8-chloro-5,6-dihydro-11H-benzo[5,6]cyclohepta[1,2-b]pyridine-11-enyl)piperidine-1-yl)propyl)-3-fluorophenyl)-2-methylpropionic acid]",34.9%,> 30 µM
5.20%,"Cc1cc(CCCN2CCC(=C3c4ccc(Cl)cc4CCc4cccnc43)CC2)ccc1C(C)(C)C(=O)O [Example 11, 2-(4-(3-(4-(8-chloro-5,6-dihydro-11H-benzo[5,6]cyclohepta[1,2-b]pyridine-11-enyl)piperidine-1-yl)propyl)-2-methylphenyl)-2-methylpropionic acid]",36.9%,> 30 µM
16.54%,"CC(C)(C(=O)O)c1ccc(CCCN2CCC(=C3c4ccccc4CCc4cc(Cl)ccc43)CC2)cc1 [Example 21, 2-(4-(3-(4-(2-chloro-10,11-dihydro-5H-dibenzo[a,d][7]cycloheptenyl-naphthylene)piperidine-1-yl)propyl)phenyl)-2-methylpropionic acid]",42.6%,> 30 µM
13.28%,CC(C)(C(=O)O)c1ccc(C#N)c(CCCN2CCC(=C3c4ccc(Cl)cc4CCc4cccnc43)CC2)c1 [Example 26],68.2%,> 30 µM
11.28%,CC(C)(C(=O)O)c1ccc(C(O)CCCN2CCC(=C3c4ccc(Cl)cc4CCc4cccnc43)CC2)cc1 (stereo not drawn) [Example 29],64.3%,> 30 µM
